pIC50: −log10 of the molar value.
How the values were obtained:
Assay type in all cases: biochemical
PI3Kβ = molecular target: T1, PI3Kβ (Homo sapiens, UniProt P42338); assay: In vitro test of enzyme activity (ADP-Glo lipokinase), PI3K beta; conditions: 40 μM ATP, 50 μM PIP2:3PS, 120 min
T1 construct: purchased Promega V1751
Procedure: (§1) 1. In Vitro Test of Enzyme Activity
(§2) The lipokinase reaction was carried out under the conditions of a suitable substrate and ATP, followed by two steps to detect the kinase activity with the ADP-Glo™ kit. The first step was terminating the kinase reaction, wherein the remaining ATP was completely removed and only ADP was left; the second step was adding kinase detection reagents to convert ADP to ATP, accompanied by luciferin/luciferase reaction. Finally, the output value of fluorescence value was converted into kinase activity.
(§3) Experimental materials and equipments:
(§4) 2. Kit: ADP-Glo™ Lipokinase and PIP2:3PS Kit (Promega # V1792)
(§5) The kit contains: 1 mM PIP2:3PS, 10× lipid dilution buffer, 1 M magnesium chloride, 10 mM ATP, 10 mM ADP, ADP-Glo reagent, detection buffer and detection substrate.
(§6) 3. Reaction plate: OptiPlate-384, white and transparent (PerkinElmer #6007299).
(§7) 1. 10× reaction buffer: 500 mM HEPES, pH 7.5, 500 mM NaCl, 9 mM MgCl2; BSA: 10% stock solution, homemade.
(§8) 2. Final test system conditions: 1× reaction system: 50 mM HEPES, 50 mM NaCl, 3 mM MgCl2, 0.01% BSA (freshly prepared on the day of the experiment), 1% DMSO (v/v)+/−compound
(§9) 3. Reaction system: 3 μL mixture of the enzyme and the substrate (1:1)+2 μL ATP/MgCl2 mixture+5 μL ADP-Glo reagent+10 μL detection reagent.
(§10) The detailed experimental procedures are as follows:
(§11) 1. Compound dilution: 50 nL 100×compound/DMSO was transferred to the test well plate with Echo. • For PI3Kα, the compound was diluted three-fold from the highest concentration of 0.111 mM for a total of 10 concentrations. • For PI3Kβ/PI3Kδ/PI3Kγ, the compound was three-fold diluted from the highest concentration of 1.11 mM for a total of 10 concentrations.
(§12) (1) The compound to be tested was prepared and 50 nL of 100 plus compound solution or DMSO was added to the corresponding well plate.
(§13) (2) 3.33 plate reaction buffer was prepared.
(§14) (3) 3.33 solution PIP2:3PS was prepared, PIP2:3PS was thawed for at least 1 minute before use.
(§15) (4) 2.5 mM containing 5.25 mM MgCl2 was prepared.
(§16) (5) 3.33 PI3Kα/PI3Kβ/PI3Kδ/PI3Kγ solution was prepared.
(§17) (6) The lipokinase solution and the PIP2:3PS solution were mixed in a volume ratio of 1:1.
(§18) (7) 3.33: lipokinase buffer and PIP2:3PS solution were mixed in a volume ratio of 1:1.
(§19) (8) 3 μL of buffer solution and PIP2:3PS were added to the first and the second columns of the well plate.
(§20) (9) 3 μL of the mixed solution of the enzyme and PIP2:3PS was added to the wells except the first and the second columns, centrifuged for 10 seconds (1000 rpm) and incubated at 23° C. for 20 minutes.
(§21) (10) 2 μL […] was added and well was shaken.
(§22) (11) The well plate was covered and shaken for about 30 s, then the well plate was incubated at 23° C. for 2 hours.
(§23) (12) 5 μL of ADP-Glo reagent containing 10 mM MgCl2 was added.
(§24) (13) The well plate was centrifuged at 1000 rpm for 10 seconds, and the well plate was then covered, shaken for about 30 seconds, and incubated at 23° C. for 60 minutes.
(§25) (14) 10 μL kinase detection reagent was added.
(§26) (15) The well plate was centrifuged at 1000 rpm for 10 seconds, and then incubated at 23° C. for 60 minutes.
(§27) (16) The fluorescence value was measured on the Envision instrument.

PI3Kα = molecular target: T2, PI3Kα (Homo sapiens, UniProt P42336); assay: In vitro test of enzyme activity (ADP-Glo lipokinase), PI3K alpha; conditions: 40 μM ATP, 50 μM PIP2:3PS, 120 min
T2 construct: purchased Millipore 14-602-K
Procedure: as §1, §2, §3, §4, §5, §6, §7, §8, §9, §10, §11, §12, §13, §14, §15, §16, §17, §18, §19, §20, §21, §22, §23, §24, §25, §26, §27

PI3Kγ = molecular target: T3, PI3Kγ (Homo sapiens, UniProt P48736); assay: In vitro test of enzyme activity (ADP-Glo lipokinase), PI3K gamma; conditions: 25 μM ATP, 50 μM PIP2:3PS, 120 min
T3 construct: purchased Millipore 14-558-K
Procedure: as §1, §2, §3, §4, §5, §6, §7, §8, §9, §10, §11, §12, §13, §14, §15, §16, §17, §18, §19, §20, §21, §22, §23, §24, §25, §26, §27

PI3Kδ = molecular target: T4, PI3Kδ (Homo sapiens, UniProt O00329); assay: In vitro test of enzyme activity (ADP-Glo lipokinase), PI3K delta; conditions: 40 μM ATP, 50 μM PIP2:3PS, 120 min
T4 construct: purchased Millipore 14-604-K
Procedure: as §1, §2, §3, §4, §5, §6, §7, §8, §9, §10, §11, §12, §13, §14, §15, §16, §17, §18, §19, §20, §21, §22, §23, §24, §25, §26, §27

T2 sequence (P42336 whole entry): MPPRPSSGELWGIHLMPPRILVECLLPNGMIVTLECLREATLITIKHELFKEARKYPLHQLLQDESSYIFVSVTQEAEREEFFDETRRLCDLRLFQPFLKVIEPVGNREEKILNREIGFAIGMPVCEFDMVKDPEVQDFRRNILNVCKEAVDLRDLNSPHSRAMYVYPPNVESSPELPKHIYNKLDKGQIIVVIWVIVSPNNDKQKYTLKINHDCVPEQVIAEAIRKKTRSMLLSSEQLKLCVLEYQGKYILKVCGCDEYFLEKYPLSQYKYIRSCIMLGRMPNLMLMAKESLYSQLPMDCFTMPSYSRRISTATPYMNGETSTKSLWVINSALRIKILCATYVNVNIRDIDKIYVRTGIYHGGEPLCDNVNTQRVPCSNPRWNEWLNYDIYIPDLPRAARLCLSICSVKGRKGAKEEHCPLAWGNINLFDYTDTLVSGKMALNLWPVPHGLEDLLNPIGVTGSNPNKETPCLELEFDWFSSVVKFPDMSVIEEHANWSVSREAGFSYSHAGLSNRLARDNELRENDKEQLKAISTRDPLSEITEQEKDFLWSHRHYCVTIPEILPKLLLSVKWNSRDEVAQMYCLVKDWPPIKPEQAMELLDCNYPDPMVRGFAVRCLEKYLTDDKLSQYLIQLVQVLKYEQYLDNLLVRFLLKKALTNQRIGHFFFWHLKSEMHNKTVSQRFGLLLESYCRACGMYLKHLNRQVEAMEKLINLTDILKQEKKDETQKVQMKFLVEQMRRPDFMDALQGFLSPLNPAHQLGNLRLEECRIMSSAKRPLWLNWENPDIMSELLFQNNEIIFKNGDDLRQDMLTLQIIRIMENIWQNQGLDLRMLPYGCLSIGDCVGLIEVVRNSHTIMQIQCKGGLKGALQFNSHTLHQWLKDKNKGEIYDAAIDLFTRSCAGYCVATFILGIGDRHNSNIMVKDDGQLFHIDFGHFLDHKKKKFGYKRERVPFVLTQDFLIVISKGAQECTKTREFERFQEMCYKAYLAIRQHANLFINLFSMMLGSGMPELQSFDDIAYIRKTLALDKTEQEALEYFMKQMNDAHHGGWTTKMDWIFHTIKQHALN
T2 sequence (P27986 whole entry partner): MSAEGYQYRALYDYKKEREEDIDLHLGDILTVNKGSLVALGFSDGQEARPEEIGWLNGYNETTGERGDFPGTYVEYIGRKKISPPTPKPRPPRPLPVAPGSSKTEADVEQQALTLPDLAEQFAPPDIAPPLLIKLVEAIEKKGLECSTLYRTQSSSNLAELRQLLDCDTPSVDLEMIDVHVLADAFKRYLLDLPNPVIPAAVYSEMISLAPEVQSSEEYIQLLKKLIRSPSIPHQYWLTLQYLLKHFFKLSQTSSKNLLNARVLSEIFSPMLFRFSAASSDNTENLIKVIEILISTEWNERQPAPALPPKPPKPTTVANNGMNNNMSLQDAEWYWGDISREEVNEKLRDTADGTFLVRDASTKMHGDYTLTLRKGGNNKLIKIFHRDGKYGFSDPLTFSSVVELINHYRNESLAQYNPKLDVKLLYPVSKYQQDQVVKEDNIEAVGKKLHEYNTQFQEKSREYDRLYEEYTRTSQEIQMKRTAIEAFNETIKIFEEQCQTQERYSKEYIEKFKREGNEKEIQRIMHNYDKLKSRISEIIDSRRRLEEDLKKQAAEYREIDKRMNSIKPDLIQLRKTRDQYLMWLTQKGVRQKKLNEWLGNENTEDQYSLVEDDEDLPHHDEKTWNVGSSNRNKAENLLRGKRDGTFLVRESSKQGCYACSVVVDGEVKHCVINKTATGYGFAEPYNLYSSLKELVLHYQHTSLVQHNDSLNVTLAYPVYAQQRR
T1 sequence (P42338 whole entry): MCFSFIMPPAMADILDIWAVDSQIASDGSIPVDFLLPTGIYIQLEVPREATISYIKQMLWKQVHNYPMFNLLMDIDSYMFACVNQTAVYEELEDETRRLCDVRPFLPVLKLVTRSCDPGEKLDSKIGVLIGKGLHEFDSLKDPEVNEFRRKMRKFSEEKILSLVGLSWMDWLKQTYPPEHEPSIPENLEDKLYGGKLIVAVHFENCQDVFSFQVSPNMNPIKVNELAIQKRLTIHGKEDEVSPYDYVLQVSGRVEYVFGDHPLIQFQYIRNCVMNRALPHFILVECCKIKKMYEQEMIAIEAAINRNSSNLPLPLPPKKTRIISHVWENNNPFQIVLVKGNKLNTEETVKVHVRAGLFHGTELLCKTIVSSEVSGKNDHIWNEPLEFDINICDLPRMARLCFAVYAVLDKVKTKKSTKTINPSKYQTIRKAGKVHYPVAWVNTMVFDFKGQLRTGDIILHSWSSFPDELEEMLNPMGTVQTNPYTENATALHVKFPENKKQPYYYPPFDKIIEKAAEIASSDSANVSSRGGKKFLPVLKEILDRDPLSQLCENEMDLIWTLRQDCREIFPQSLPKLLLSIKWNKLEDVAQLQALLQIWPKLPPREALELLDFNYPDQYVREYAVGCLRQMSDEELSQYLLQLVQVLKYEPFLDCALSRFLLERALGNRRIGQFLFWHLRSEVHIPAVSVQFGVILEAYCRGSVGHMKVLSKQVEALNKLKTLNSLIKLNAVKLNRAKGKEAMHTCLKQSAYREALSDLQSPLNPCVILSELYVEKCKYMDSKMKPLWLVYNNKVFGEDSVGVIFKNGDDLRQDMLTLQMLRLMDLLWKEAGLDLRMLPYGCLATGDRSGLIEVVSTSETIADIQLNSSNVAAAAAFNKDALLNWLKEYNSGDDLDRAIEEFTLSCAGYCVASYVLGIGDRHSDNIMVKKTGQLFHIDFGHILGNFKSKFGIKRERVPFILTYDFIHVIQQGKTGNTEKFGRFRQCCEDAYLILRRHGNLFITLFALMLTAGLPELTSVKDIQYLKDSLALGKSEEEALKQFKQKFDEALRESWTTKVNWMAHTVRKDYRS
T1 sequence (P27986 whole entry partner): as the sequence (P27986 whole entry partner) above
T4 sequence (O00329 whole entry): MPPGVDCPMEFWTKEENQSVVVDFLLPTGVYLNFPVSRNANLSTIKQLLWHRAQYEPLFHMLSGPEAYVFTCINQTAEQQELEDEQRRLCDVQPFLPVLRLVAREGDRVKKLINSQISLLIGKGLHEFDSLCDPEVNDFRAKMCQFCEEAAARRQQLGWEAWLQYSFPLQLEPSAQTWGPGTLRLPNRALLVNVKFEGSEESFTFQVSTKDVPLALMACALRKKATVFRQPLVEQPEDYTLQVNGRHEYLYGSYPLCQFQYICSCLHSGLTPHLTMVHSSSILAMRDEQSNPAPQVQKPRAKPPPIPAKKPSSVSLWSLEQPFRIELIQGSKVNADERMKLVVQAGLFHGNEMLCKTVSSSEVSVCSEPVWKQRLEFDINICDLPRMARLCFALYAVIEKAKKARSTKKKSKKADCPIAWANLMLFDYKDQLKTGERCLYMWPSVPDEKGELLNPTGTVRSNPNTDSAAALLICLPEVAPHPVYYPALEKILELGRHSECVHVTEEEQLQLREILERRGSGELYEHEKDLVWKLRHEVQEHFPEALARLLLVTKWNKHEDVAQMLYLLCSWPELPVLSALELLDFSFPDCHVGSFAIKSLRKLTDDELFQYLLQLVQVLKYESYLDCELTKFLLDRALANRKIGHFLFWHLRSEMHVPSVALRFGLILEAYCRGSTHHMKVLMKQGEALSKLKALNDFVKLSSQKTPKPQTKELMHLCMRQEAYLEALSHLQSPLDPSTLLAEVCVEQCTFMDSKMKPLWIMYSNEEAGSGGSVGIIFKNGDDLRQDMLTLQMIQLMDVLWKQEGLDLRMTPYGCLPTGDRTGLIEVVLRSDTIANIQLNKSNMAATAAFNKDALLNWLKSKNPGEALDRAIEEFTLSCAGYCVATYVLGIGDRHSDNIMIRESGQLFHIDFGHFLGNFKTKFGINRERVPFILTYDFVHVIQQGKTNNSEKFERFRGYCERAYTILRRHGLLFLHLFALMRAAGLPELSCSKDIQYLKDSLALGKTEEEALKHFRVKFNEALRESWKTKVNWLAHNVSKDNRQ
T4 sequence (P27986 whole entry partner): as the sequence (P27986 whole entry partner) above
T3 sequence (P48736 whole entry): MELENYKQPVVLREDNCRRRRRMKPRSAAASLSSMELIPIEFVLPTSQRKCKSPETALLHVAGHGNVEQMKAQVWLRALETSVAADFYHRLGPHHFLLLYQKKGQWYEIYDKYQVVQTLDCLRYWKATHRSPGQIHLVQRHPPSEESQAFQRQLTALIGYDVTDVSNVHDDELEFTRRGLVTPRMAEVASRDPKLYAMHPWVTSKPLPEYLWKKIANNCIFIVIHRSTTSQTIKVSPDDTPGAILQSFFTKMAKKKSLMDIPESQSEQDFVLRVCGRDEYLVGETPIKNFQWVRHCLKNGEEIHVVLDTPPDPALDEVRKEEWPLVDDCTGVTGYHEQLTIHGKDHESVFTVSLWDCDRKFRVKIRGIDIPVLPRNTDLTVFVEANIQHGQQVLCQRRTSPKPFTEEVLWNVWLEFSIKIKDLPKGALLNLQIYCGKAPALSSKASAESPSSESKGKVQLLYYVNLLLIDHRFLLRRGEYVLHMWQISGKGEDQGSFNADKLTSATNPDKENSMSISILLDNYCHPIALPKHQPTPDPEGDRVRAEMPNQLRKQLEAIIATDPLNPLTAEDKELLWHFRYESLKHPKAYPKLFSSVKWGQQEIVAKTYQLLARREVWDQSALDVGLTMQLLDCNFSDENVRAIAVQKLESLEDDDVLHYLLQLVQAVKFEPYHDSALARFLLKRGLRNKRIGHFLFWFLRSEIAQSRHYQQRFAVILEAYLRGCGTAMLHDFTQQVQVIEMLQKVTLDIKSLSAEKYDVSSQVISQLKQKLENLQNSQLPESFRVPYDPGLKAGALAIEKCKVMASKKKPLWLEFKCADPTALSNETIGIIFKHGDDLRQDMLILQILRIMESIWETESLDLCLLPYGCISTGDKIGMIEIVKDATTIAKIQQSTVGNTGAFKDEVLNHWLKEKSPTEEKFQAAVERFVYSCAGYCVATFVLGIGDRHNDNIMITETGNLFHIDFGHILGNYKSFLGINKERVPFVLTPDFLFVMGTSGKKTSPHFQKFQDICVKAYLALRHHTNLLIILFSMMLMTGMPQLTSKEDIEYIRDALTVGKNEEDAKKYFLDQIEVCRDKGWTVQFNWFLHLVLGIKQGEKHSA

Row | Structure (SMILES) | pIC50 (PI3Kβ) | pIC50 (PI3Kα) | pIC50 (PI3Kγ) | pIC50 (PI3Kδ)
1 | CNC[C@@H](C)Cn1cnc2ccc(-c3cnc(OC)c(NS(=O)(=O)c4ccc(F)cc4Cl)c3)cc2c1=O [R008, reference compound] | 6.92 | 7.92 |  | 
2 | CNC(=O)C(C)Cn1cnc2ccc(-c3cnc(OC)c(NS(=O)(=O)c4ccc(F)cc4C)c3)cc2c1=O (single isomer, unassigned) [WX180] | 6.39 | 7.99 |  | 
3 | CNC(=O)CCCn1cnc2ccc(-c3cnc(C)c(NS(=O)(=O)c4ccc(F)cc4Cl)c3)cc2c1=O [WX002] | 6.67 | 8.55 | 7.47 | 7.91
4 | CNC(=O)[C@H](C)Cn1cnc2ccc(-c3cnc(OC)c(NS(=O)(=O)c4ccc(Cl)c(C)c4)c3)cc2c1=O [WX190] | 6.69 | 7.88 |  | 
5 | COC(=O)C(C)Cn1cnc2ccc(-c3cnc(OC)c(NS(=O)(=O)c4ccc(F)cc4Cl)c3)cc2c1=O (single isomer, unassigned) [R005, reference compound] | 7.00 | 8.23 |  | 
6 | CNC(=O)[C@@H](C)Cn1cnc2ccc(-c3cnc(OC)c(NS(=O)(=O)c4c(Cl)cccc4Cl)c3)cc2c1=O [WX207] | 7.69 | 9.07 |  | 
7 | COc1ncc(-c2ccc3ncn(CCCC(=O)N4CCCC4)c(=O)c3c2)cc1NS(=O)(=O)c1ccc(F)cc1Cl [WX199] | 6.70 | 8.31 |  | 
8 | CNC(=O)C(C)Cn1cnc2ccc(-c3cnc(OC)c(NS(=O)(=O)c4ccc(F)c(Cl)c4)c3)cc2c1=O (single isomer, unassigned) [WX166] | 6.65 | 8.24 |  | 
9 | CNC(=O)C(C)Cn1cnc2ccc(-c3cnc(OC)c(NS(=O)(=O)c4cccc(C)c4F)c3)cc2c1=O (single isomer, unassigned) [WX219] | 6.56 | 8.27 |  | 
10 | CNC(=O)C(C)Cn1cnc2ccc(-c3cnc(OC)c(NS(=O)(=O)c4cc(C)cc(F)c4)c3)cc2c1=O (single isomer, unassigned) [WX187] | 6.48 | 8.32 |  | 
11 | CNC(=O)C(C)Cn1cnc2ccc(-c3cnc(OC)c(NS(=O)(=O)c4cc(C)ccc4Cl)c3)cc2c1=O (single isomer, unassigned) [WX213] | 6.70 | 8.34 |  | 
12 | CNC(=O)C(C)Cn1cnc2ccc(-c3cnc(OC)c(NS(=O)(=O)c4cc(C(F)(F)F)cc(C(F)(F)F)c4)c3)cc2c1=O (single isomer, unassigned) [WX104] | 5.71 | 7.41 |  | 
13 | CNC(=O)C(C)Cn1cnc2ccc(-c3cnc(OC)c(NS(=O)(=O)c4ccc(F)c(Cl)c4)c3)cc2c1=O (single isomer, unassigned) [WX167] | 6.80 | 7.89 |  | 
14 | CNC(=O)C(C)Cn1cnc2ccc(-c3cnc(OC)c(NS(=O)(=O)c4sccc4C)c3)cc2c1=O (single isomer, unassigned) [WX209] | 6.75 | 8.39 |  | 
15 | CNC(=O)C(C)Cn1cnc2ccc(-c3cnc(OC)c(NS(=O)(=O)c4cc(F)cc(F)c4)c3)cc2c1=O (single isomer, unassigned) [WX193] | 6.35 | 7.90 |  | 
16 | CNC(=O)[C@@H](C)Cn1cnc2ccc(-c3cnc(OC)c(NS(=O)(=O)c4cc(C)cc(Cl)c4)c3)cc2c1=O [WX184] | 6.72 | 8.09 |  | 
17 | CNC(=O)C(C)Cn1cnc2ccc(-c3cnc(OC)c(NS(=O)(=O)c4cc(Cl)ccc4C)c3)cc2c1=O (single isomer, unassigned) [WX221] | 6.79 | 8.34 |  | 
18 | CCOC(=O)CCCn1cnc2ccc(-c3cnc(OC)c(NS(=O)(=O)c4ccc(F)cc4Cl)c3)cc2c1=O [R001, reference compound] | 7.00 | 8.42 |  | 
19 | CNC(=O)C(C)Cn1cnc2ccc(-c3cnc(OC)c(NS(=O)(=O)c4cccc(C)c4F)c3)cc2c1=O (single isomer, unassigned) [WX220] | 6.86 | 8.00 |  | 

Row | Structure (SMILES) | pIC50 (PI3Kβ) | pIC50 (PI3Kα) | pIC50 (PI3Kγ) | pIC50 (PI3Kδ)
20 | CNC(=O)C(C)Cn1cnc2ccc(-c3cnc(OC)c(NS(=O)(=O)c4ccc(F)cc4C(F)(F)F)c3)cc2c1=O (single isomer, unassigned) [WX195] | 6.49 | 8.25 |  | 
21 | CNC(=O)C(C)Cn1cnc2ccc(-c3cnc(OC)c(NS(=O)(=O)c4ccc(F)cc4)c3)cc2c1=O (single isomer, unassigned) [WX088] | 6.68 | 8.10 |  | 
22 | CNC(=O)C(C)Cn1cnc2ccc(-c3cnc(OC)c(NS(=O)(=O)c4cc(Cl)c(F)cc4F)c3)cc2c1=O (single isomer, unassigned) [WX096] | 6.76 | 8.07 |  | 
23 | CNC(=O)[C@H](C)Cn1cnc2ccc(-c3cnc(OC)c(NS(=O)(=O)c4cc(Cl)ccc4Cl)c3)cc2c1=O [WX182] | 7.13 | 8.83 |  | 
24 | CNC(=O)C(C)Cn1cnc2ccc(-c3cnc(OC)c(NS(=O)(=O)c4c(Cl)cccc4Cl)c3)cc2c1=O (single isomer, unassigned) [WX208] | 6.92 | 8.60 |  | 
25 | CNC(=O)C(C)Cn1cnc2ccc(-c3cnc(OC)c(NS(=O)(=O)c4ccc(C)cc4C)c3)cc2c1=O (single isomer, unassigned) [WX092] | 6.60 | 8.19 |  | 
26 | COc1ncc(-c2ccc3ncn(CC(C)(C)C(N)=O)c(=O)c3c2)cc1NS(=O)(=O)c1ccc(F)cc1Cl [WX020] | 6.38 | 7.99 |  | 
27 | CNC(=O)[C@H](C)Cn1cnc2ccc(-c3cnc(OC)c(NS(=O)(=O)c4cccc(C)c4Cl)c3)cc2c1=O [WX188] | 6.82 | 8.53 |  | 
28 | CNC(=O)C(C)Cn1cnc2ccc(-c3cnc(OC)c(NS(=O)(=O)c4ccc(Cl)cc4C)c3)cc2c1=O (single isomer, unassigned) [WX217] | 6.57 | 8.46 |  | 
29 | CNC(=O)C(C)Cn1cnc2ccc(-c3cnc(OC)c(NS(=O)(=O)c4ccc(F)c(C#N)c4)c3)cc2c1=O (single isomer, unassigned) [WX156] | 6.30 | 8.45 |  | 
30 | CNC(=O)C(C)Cn1cnc2ccc(-c3cnc(OC)c(NS(=O)(=O)c4ccc(OC)cc4)c3)cc2c1=O (single isomer, unassigned) [WX204] | 6.28 | 7.65 |  | 
31 | CNC[C@H](C)Cn1cnc2ccc(-c3cnc(OC)c(NS(=O)(=O)c4ccc(F)cc4Cl)c3)cc2c1=O [R009, reference compound] | 6.97 | 7.98 |  | 
32 | CNC(=O)C(C)Cn1cnc2ccc(-c3cnc(OC)c(NS(=O)(=O)c4ccc(F)c(C#N)c4)c3)cc2c1=O (single isomer, unassigned) [WX157] | 6.54 | 8.24 |  | 
33 | CNC(=O)C(C)Cn1cnc2ccc(-c3cnc(OC)c(NS(=O)(=O)c4ccc(C)c(Cl)c4)c3)cc2c1=O (single isomer, unassigned) [WX161] | 6.82 | 8.05 |  | 
34 | CNC(=O)[C@@H](C)Cn1cnc2ccc(-c3cnc(OC)c(NS(=O)(=O)c4ccccc4F)c3)cc2c1=O [WX205] | 7.01 | 8.43 |  | 
35 | CNC(=O)C(C)Cn1cnc2ccc(-c3cnc(OC)c(NS(=O)(=O)c4ccc(C)c(Cl)c4)c3)cc2c1=O (single isomer, unassigned) [WX160] | 5.68 | 7.95 |  | 
36 | CNC(=O)C(C)Cn1cnc2ccc(-c3cnc(C(F)(F)F)c(NS(=O)(=O)c4ccc(F)cc4Cl)c3)cc2c1=O (stereo not drawn) [WX084] | 6.96 | 9.25 |  | 
37 | CNC(=O)[C@H](C)Cn1cnc2ccc(-c3cnc(OC)c(NS(=O)(=O)c4ccc(OC)cc4)c3)cc2c1=O [WX203] | 6.23 | 7.89 |  | 
38 | CNC(=O)C(C)Cn1cnc2ccc(-c3cnc(OC)c(NS(=O)(=O)c4ccc(Cl)cc4C)c3)cc2c1=O (single isomer, unassigned) [WX218] | 6.67 | 8.30 |  | 

From patent US20200317660A1, “Quinazolinone Compound and Application Thereof” (LUOXIN PHARMACEUTICAL (SHANGHAI) CO., LTD., priority 2017, published 2020)
